Laboratory results from patent US10538487B2, “Sulfonylureas and related compounds and use of same” (priority 2015, dated 2020).
Where two headings read alike, the source gives them in different places.

What was measured:
NLRP3 inflammasome [1] = biological target: T1, NLRP3 inflammasome (Homo sapiens, UniProt Q96P20); experiment: Inhibition of IL-18 release, NLRP3 inflammasome activation assay in HMDM; assay type: cell-based; conditions: class symbols
Protocol: (§1) The following assays can be used to determine inhibitory activity of test compounds on the NLRP3 inflammasome using common stimuli such as adenosine triphosphate, nigericin, LeuLeu-OMe or monosodium urate crystals (MSU).
To generate HMDM, human monocytes are isolated from buffy coat blood using Ficoll-Plaque Plus (GE Healthcare) and density centrifugation. CD14^+ cell selection is performed using MACS magnetic beads (Miltenyl Biotec).
HMDM are seeded at 1×10^5/ml. […] Medium is removed and replaced with serum free medium (SFM) containing test compound 30 min prior to NLRP3 stimulation. […] ATP can be sourced from Sigma Aldrich, nigericin and MSU from Invivogen and LeuLeu-Ome from Chem-Impex International.
(§2) For ELISA and cell death assays cells are seeded in 96 well plates. Supernatants are removed and analysed using ELISA kits according to the manufacturer's instructions (DuoSet® R&D Systems, ReadySetGo!® eBioscience, BD OptEIA™, or Perkin Elmer AlphaLISA®). Cell death is assessed by measurement of LDH release relative to a 100% cell lysis control using the CytoTox96® non-radioactive cytotoxicity assay (Promega).

NLRP3 inflammasome [2] = biological target: T1, NLRP3 inflammasome; experiment: Inhibition of IL-1β release, NLRP3 inflammasome activation assay in HMDM; assay type: cell-based
Outline: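 Primary human monocyte-derived macrophages from CD14+ buffy-coat monocytes, seeded at 1×10^5/ml. Compound added in serum-free medium 30 min before NLRP3 stimulation (ATP, nigericin, LeuLeu-OMe or MSU). Cytokine in supernatants measured by ELISA or AlphaLISA; cell death by LDH release relative to full lysis.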

[3] = Compound levels in blood plasma of mice after oral gavage (LC-MS/MS); assay type: in vivo; conditions: mouse, 2 hour timepoint after oral gavage at 20 mg/Kg
Protocol: A series of 10-fold dilutions of the 100,000 ng/mL stock solution with 10 mM NH4HCO3 gave concentrations of 10,000, 1,000, 100 and 10 ng/mL. The 100,000 ng/mL stock solution was diluted to 3:7 with 10 mM NH4HCO3 to give a concentration of 30,000 ng/mL and a series of 10-fold dilutions gave concentrations of 3,000, 300, 30 and 3 ng/mL.
20 μL of test compound-containing solution and 160 μL precipitation solution were added to 20 μL of mouse plasma in a low binding Eppendorf tube. The samples were vortexed, allowed to stand at 4° C. for 10 mins and centrifuged at 14,000×g for 8 min. 150 μL of the supernatant was transferred to an HPLC vial insert. The samples were stored at 4° C. until analysis.
Dosing: Oral gavage at 20 mg/kg
(§3) Prepare stock compounds for dosing at 4 mg/ml in sterile PBS. Mice were weighed and dosed by oral gavage at 20 mg/kg for each compound. […]
The samples were analysed on an AB Sciex 4000QTrap MS with 2 Shimadzu Nexera LC-30AD Solvent Delivery Units, Shimadzu Nexera SIL-30AC Auto-Sampler, Shimadzu Prominence DGU-20A5 Degasser, Shimadzu Prominence CBM-20A System Controller and Shimadzu Prominence CTO-20A Column Oven. […] The peak areas from the SRM data for carbutamide and test compound were analysed using the AB Sciex's Analyst software using the Quantitation Wizard.

NLRP3 inflammasome [4] = biological target: NLRP3 inflammasome (Mus musculus, UniProt Q8R4B8); experiment: Inhibition of IL-1β release, NLRP3 inflammasome activation assay in BMDM; assay type: cell-based
Sequence of NLRP3 inflammasome (Mus musculus, UniProt Q8R4B8) (Q8R4B8 whole entry): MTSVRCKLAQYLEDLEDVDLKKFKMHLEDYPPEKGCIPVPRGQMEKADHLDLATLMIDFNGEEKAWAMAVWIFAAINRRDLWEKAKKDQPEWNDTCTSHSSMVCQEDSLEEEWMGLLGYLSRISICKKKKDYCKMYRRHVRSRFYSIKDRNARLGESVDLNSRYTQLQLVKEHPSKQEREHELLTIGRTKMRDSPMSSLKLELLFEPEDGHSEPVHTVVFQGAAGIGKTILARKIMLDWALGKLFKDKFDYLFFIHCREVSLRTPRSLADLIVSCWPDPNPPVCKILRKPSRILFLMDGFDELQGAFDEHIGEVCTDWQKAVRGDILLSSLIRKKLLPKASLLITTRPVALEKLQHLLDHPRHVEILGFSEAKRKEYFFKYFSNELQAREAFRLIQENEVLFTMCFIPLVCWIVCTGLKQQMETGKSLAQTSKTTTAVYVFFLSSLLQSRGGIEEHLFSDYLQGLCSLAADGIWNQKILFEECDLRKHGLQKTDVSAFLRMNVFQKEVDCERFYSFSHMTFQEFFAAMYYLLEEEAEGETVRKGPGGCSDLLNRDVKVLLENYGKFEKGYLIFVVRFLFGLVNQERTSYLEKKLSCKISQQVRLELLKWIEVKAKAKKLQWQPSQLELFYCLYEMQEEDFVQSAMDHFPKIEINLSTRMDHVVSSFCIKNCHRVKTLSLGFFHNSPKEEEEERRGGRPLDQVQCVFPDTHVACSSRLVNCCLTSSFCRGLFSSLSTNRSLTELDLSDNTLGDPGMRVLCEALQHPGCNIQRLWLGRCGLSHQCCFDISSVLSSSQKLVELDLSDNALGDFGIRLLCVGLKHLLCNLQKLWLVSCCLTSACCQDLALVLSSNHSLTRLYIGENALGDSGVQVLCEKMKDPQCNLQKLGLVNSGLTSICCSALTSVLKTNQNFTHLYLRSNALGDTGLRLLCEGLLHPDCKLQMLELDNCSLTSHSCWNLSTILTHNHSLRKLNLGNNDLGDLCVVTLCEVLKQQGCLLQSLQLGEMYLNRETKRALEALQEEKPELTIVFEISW
Protocol: as §1
Mouse bone marrow-derived macrophages (BMDM) were derived from bone marrow progenitors isolated from the femurs and tibias of C57BL/6 mice.
BMDM are seeded at 1×10^5/ml. The following day the overnight medium is replaced and cells are stimulated with Ultrapure lipopolysaccharide from Escherichia coli K12 strain (InvivoGen) for 3 h. Medium is removed and replaced with serum free medium (SFM) containing test compound 30 min prior to NLRP3 stimulation. […] ATP can be sourced from Sigma Aldrich, nigericin and MSU from Invivogen and LeuLeu-Ome from Chem-Impex International.
as §2

[5] = Half life of CRID3 in mouse (stated in description); assay type: in vivo
in vivo = conditions: mouse, brain, mice, oral gavage at 20 mg/kg
Protocol: The sample solutions prepared for the plasma standard curve were used for the brain homogenate standard curve.
The mouse brain homogenate from the saline control was thawed and vortexed for 3 min or until homogenous, sonicated for 1 min. When the foam settled, 50 μL of mouse brain homogenate was transferred into an Eppendorf tube, followed by 50 μL of test compound in 10 mM NH4HCO3, 150 μL of H2O and 500 μL of ice cold precipitation solution with vortexing after every addition. The standards were allowed to stand at 4° C. for 10 mins and then centrifuged at 14,000×g for 8 min. 200 μL of the supernatant was transferred to HPLC vial insert ensuring that no air bubbles were present and the samples stored at 4° C. until analysis.
Dosing: Oral gavage at 20 mg/kg
as §3
The samples were analysed on an AB Sciex 4000QTrap MS with 2 Shimadzu Nexera LC-30AD Solvent Delivery Units, Shimadzu Nexera SIL-30AC Auto-Sampler, Shimadzu Prominence DGU-20A5 Degasser, Shimadzu Prominence CBM-20A System Controller and Shimadzu Prominence CTO-20A Column Oven. […] The peak areas from the SRM data for carbutamide and test compound were analysed using the AB Sciex's Analyst software using the Quantitation Wizard. […]

[6] = inhibition of IL-1β release, class symbols, read-out: Avg. IL-1β IC50 HMDM
[7] = inhibition of IL-1β release, class symbols, read-out: Avg. IL-1β IC50 Murine BMDM
[8] = select compounds of the first aspect (Table 10), read-out: BMDM IC50 vs NLRP3
[9] = select compounds of the first aspect (Table 10), read-out: HMDM IC50 vs NLRP3
[10] = inhibition of IL-1β release, numeric bounds, read-out: Avg. IL-1β IC50 Murine BMDM
[11] = inhibition of IL-1β release, numeric bounds, read-out: Avg. IL-1β IC50 HMDM

T1 sequence (Q96P20 whole entry): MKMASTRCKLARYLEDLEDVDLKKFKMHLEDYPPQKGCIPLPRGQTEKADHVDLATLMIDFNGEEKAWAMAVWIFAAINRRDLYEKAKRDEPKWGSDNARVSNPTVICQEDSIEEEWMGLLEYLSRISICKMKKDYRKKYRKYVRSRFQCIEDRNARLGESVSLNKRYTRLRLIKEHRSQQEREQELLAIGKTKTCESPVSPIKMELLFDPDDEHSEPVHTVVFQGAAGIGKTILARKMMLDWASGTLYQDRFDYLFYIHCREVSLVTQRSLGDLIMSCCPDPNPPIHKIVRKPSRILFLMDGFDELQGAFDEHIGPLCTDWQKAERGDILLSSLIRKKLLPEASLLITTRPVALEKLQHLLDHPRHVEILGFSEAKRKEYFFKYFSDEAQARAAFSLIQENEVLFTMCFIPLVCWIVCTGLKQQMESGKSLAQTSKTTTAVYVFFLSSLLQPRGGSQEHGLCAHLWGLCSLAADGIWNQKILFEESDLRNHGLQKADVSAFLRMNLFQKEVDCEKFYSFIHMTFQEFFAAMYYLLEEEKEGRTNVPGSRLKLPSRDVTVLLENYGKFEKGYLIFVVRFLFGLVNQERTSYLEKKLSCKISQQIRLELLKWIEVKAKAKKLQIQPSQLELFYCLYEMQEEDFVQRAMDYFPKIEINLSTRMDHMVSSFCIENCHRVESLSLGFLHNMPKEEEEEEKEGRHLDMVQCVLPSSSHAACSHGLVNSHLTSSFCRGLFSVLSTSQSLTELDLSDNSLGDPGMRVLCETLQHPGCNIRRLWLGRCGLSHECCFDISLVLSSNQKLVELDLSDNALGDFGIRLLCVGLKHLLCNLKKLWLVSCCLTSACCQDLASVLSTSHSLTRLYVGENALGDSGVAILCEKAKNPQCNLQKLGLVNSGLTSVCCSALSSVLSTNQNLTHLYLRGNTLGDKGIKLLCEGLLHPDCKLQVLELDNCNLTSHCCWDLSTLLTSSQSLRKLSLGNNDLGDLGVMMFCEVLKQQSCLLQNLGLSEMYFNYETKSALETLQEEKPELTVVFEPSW

Structure (SMILES) | IC50 (NLRP3 inflammasome [1]) [nM] | IC50 (NLRP3 inflammasome [2]; [6]) [nM] | IC50 (NLRP3 inflammasome [4]; [7]) [nM] | also measured
CC(C)(C)n1ccc(S(=O)(=O)NC(=O)Nc2c3c(cc4c2CCC4)CCC3)n1 [1-(tert-butyl)-N-((1,2,3,5,6,7-hexahydro-s-indacen-4-yl)carbamoyl)-1H-pyrazole-3-sulfonamide] | < 100 | < 100 | – | –
CC(C)n1ccc(S(=O)(=O)NC(=O)Nc2c3c(cc4c2CCC4)CCC3)n1 [drawing 336] | – | – | – | concentration at 2 h [3]: 28200 ng/mL
Cn1nc(S(=O)(=O)NC(=O)Nc2c3c(cc4c2CCC4)CCC3)cc1C(C)(C)O [N-((1,2,3,5,6,7-hexahydro-s-indacen-4-yl)carbamoyl)-5-(2-hydroxypropan-2-yl)-1-methyl-1H-pyrazole-3-sulfonamide] | < 100 | < 100 | < 100 | –
CC(C)(O)c1coc(S(=O)(=O)NC(=O)Nc2c3c(cc4c2CCC4)CCC3)c1 [CRID3] | – | – | – | half life [5]: 3.2 h
CC(C)(O)c1coc(S(=O)(=O)NC(=O)Nc2c3c(cc4c2CCC4)CCC3)c1 [drawing 335] | – | – | – | concentration at 2 h (in vivo): 184 ng/g; Kp at 2 h (in vivo; read-out: Brain/Plasma Ratio): 0.0117; concentration at 2 h [3]: 17500 ng/mL
O=C(Nc1c2c(cc3c1CCC3)CCC2)NS(=O)(=O)c1cccs1 [N-((1,2,3,5,6,7-hexahydro-s-indacen-4-yl)carbamoyl)thiophene-2-sulfonamide] | < 100 | < 100 | – | –
CC(C)(O)c1cc(S(=O)(=O)NC(=O)Nc2c3c(cc4c2CCC4)CCC3)nn1-c1ccccc1 [N-((1,2,3,5,6,7-hexahydro-s-indacen-4-yl)carbamoyl)-5-(2-hydroxypropan-2-yl)-1-phenyl-1H-pyrazole-3-sulfonamide] | < 100 | < 100 | < 100 | –
Cc1ccc(S(=O)(=O)NC(=O)Nc2c3c(cc4c2CCC4)CCC3)s1 [N-((1,2,3,5,6,7-hexahydro-s-indacen-4-yl)carbamoyl)-5-methylthiophene-2-sulfonamide] | < 100 | < 100 | – | –
O=C(Nc1c2c(cc3c1CCC3)CCC2)NS(=O)(=O)c1ncn(Cc2ccccc2)n1 [1-benzyl-N-((1,2,3,5,6,7-hexahydro-s-indacen-4-yl)carbamoyl)-1H-1,2,4-triazole-3-sulfonamide] | < 100 | < 100 | – | –
CC(C)(O)c1cc(S(=O)(=O)NC(=O)Nc2c3c(cc4c2CCC4)CCC3)nn1Cc1ccccc1 [1-benzyl-N-((1,2,3,5,6,7-hexahydro-s-indacen-4-yl)carbamoyl)-5-(2-hydroxypropan-2-yl)-1H-pyrazole-3-sulfonamide] | < 100 | < 100 | – | –
CC(C)(O)c1coc(S(=O)(=O)NC(=O)Nc2c3c(c(Br)c4c2CCC4)CCC3)c1 [N-((8-bromo-1,2,3,5,6,7-hexahydro-s-indacen-4-yl)carbamoyl)-4-(2-hydroxypropan-2-yl)furan-2-sulfonamide] | – | < 100 | < 100 | –
Nc1ccc(S(=O)(=O)NC(=O)Nc2c3c(cc4c2CCC4)CCC3)cc1 [drawing 365] | – | – | – | IC50 (NLRP3 inflammasome [4]; [8]): 14 nM; IC50 (NLRP3 inflammasome [2]; [9]): 310 nM
COc1ccc2c(c1NC(=O)NS(=O)(=O)c1cc(C(C)(C)O)co1)CCC2 [4-(2-hydroxypropan-2-yl)-N-((5-methoxy-2,3-dihydro-1H-inden-4-yl)carbamoyl)furan-2-sulfonamide] | – | < 1000 | < 1000 | –
Cc1ccc(S(=O)(=O)NC(=O)Nc2c3c(cc4c2CCC4)CCC3)o1 [N-((1,2,3,5,6,7-hexahydro-s-indacen-4-yl)carbamoyl)-5-methylfuran-2-sulfonamide] | < 100 | < 100 | – | –
CCC1=C(C)CN(C(=O)NCCc2ccc(S(=O)(=O)NC(=O)Nc3c4c(cc5c3CCC5)CCC4)cc2)C1=O [3-Ethyl-N-(4-(N-((1,2,3,5,6,7-hexahydro-s-indacen-4-yl)carbamoyl)sulfamoyl)phenethyl)-4-methyl-2-oxo-2,5-dihydro-1H-pyrrole-1-carboxamide] | – | < 1000 | < 1000 | –
O=C(Nc1c2c(cc3c1CCC3)CCC2)NS(=O)(=O)c1cccc(OC(F)(F)F)c1 [N-((1,2,3,5,6,7-hexahydro-s-indacen-4-yl)carbamoyl)-3-(trifluoromethoxy)benzenesulfonamide] | – | < 1000 | < 1000 | –
CCC1=C(C)CN(C(=O)NCCc2ccc(S(=O)(=O)NC(=O)Nc3c4c(cc5c3CCC5)CCC4)cc2)C1=O [drawing 360] | – | – | – | IC50 (NLRP3 inflammasome [4]; [8]): 220 nM; IC50 (NLRP3 inflammasome [2]; [9]): 650 nM
O=C(Nc1c2c(cc3c1CCC3)CCC2)NS(=O)(=O)c1ccc(Cl)cc1 [drawing 366] | – | – | – | IC50 (NLRP3 inflammasome [4]; [8]): 30 nM; IC50 (NLRP3 inflammasome [2]; [9]): 300 nM
COc1ccc2c(c1)C(=O)N(CCc1ccc(S(=O)(=O)NC(=O)Nc3c4c(cc5c3CCC5)CCC4)cc1)C(=O)C2(C)C [drawing 361] | – | – | – | IC50 (NLRP3 inflammasome [4]; [8]): 260 nM; IC50 (NLRP3 inflammasome [2]; [9]): 2300 nM
CCCNC(=O)NS(=O)(=O)c1ccc(Cl)cc1 [Chlorpropamide, reference compound] | – | – | – | IC50 (NLRP3 inflammasome [4]; commercial compounds (Table 9), read-out: BMDM IC50 vs NLRP3): > 200000 nM; IC50 (NLRP3 inflammasome [2]; commercial compounds (Table 9), read-out: HMDM IC50 vs NLRP3): > 200000 nM
CC(C)c1cccc(C(C)C)c1NC(=O)NS(=O)(=O)c1cc(C(C)(C)O)n(C)n1 [N-((2,6-diisopropylphenyl)carbamoyl)-5-(2-hydroxypropan-2-yl)-1-methyl-1H-pyrazole-3-sulfonamide] | < 100 | < 100 | – | –
CC(C)c1cc(Cl)cc(C(C)C)c1NC(=O)NS(=O)(=O)c1cc2ccccc2o1 [N-((4-chloro-2,6-diisopropylphenyl)carbamoyl)benzofuran-2-sulfonamide] | – | < 100 | < 100 | –
Cc1cc(C)nc(NC(=O)NS(=O)(=O)c2cc(C(C)(C)O)co2)n1 [N-((4,6-dimethylpyrimidin-2-yl)carbamoyl)-4-(2-hydroxypropan-2-yl)furan-2-sulfonamide] | – | – | – | IC50 (NLRP3 inflammasome [4]; [10]): > 10000 nM; IC50 (NLRP3 inflammasome [2]; [11]): > 50000 nM
O=C(Nc1c2c(cc3c1CCC3)CCC2)NS(=O)(=O)c1ccc2c(c1)CCC2 [N-((1,2,3,5,6,7-hexahydro-s-indacen-4-yl)carbamoyl)-2,3-dihydro-1H-indene-5-sulfonamide] | – | < 10000 | < 100 | –
CC(C)n1ccc(S(=O)(=O)NC(=O)Nc2c(C3CC3)cc(Cl)c3c2CCC3)n1 [N-((7-chloro-5-cyclopropyl-2,3-dihydro-1H-inden-4-yl)carbamoyl)-1-isopropyl-1H-pyrazole-3-sulfonamide] | – | < 1000 | < 1000 | –
O=C(Nc1ccc(Cl)cc1)NS(=O)(=O)c1ccc2c(c1)CCC2 [N-((4-chlorophenyl)carbamoyl)-2,3-dihydro-1H-indene-5-sulfonamide] | – | – | – | IC50 (NLRP3 inflammasome [4]; [10]): > 10000 nM; IC50 (NLRP3 inflammasome [2]; [11]): > 100000 nM
COc1cccc(S(=O)(=O)NC(=O)Nc2c3c(cc4c2CCC4)CCC3)c1 [N-(1,2,3,5,6,7-hexahydros-indacen-4-ylcarbamoyl)-3-methoxybenzenesulfonamide] | – | < 100 | < 100 | –
